# ChEMBL document CHEMBL1201862, “PubChem BioAssay data set” (2004)
# “And” between values parts separate entries of the source, which are not always exact repeats. Equal values may be shown once.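 Briefly, cells in 96-well plates were exposed to five compound concentrations for 48 h, and endpoints were estimated by linear interpolation. GI50 = concentration required for 50% inhibition of growth.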 The source made the active and inactive calls. Cut-off read from the data, not from the text of the source: active = GI50 up to about 1.1 µM and inactive = higher.
# Tests used:
# Assay in all cases: NCI tumour cell line growth inhibition, 48 h
# NCI-H23 = system: NCI-H23
# SNB-75 = system: SNB-75
# SF-539 = system: SF-539
# SN12C = system: SN12C
# UO-31 = system: UO-31
# HCC 2998 = system: HCC 2998
# OVCAR-3 = system: OVCAR-3
# NCI/ADR-RES = system: NCI/ADR-RES
# HCT-15 = system: HCT-15
# K562 = system: K562
# UACC-257 = system: UACC-257
# OVCAR-4 = system: OVCAR-4
# OVCAR-5 = system: OVCAR-5
# A498 = system: A498
# ACHN = system: ACHN
# CAKI-1 = system: CAKI-1
# MDA-MB-435 = system: MDA-MB-435
# COLO 205 = system: COLO 205
# MDA-N = system: MDA-N
SMILES,GI50 (NCI-H23),GI50 (SNB-75),GI50 (SF-539),GI50 (SN12C),GI50 (UO-31),GI50 (HCC 2998),GI50 (OVCAR-3),GI50 (NCI/ADR-RES),GI50 (HCT-15),GI50 (K562),GI50 (UACC-257),GI50 (OVCAR-4),GI50 (OVCAR-5),GI50 (A498),GI50 (ACHN),GI50 (CAKI-1),GI50 (MDA-MB-435),GI50 (COLO 205),GI50 (MDA-N)
COC1OC(C(=O)CP(=O)(OC)OC)C(OCc2ccccc2)C(OCc2ccccc2)C1OCc1ccccc1 (stereo unspecified),15.9 µM (inactive) and 17.5 µM (inactive),14.6 µM (inactive) and 16 µM (inactive),17.3 µM (inactive) and 16.9 µM (inactive),16.4 µM (inactive),11.2 µM (inactive) and 17.1 µM (inactive),16.2 µM (inactive) and 17.3 µM (inactive),15.6 µM (inactive) and 15.1 µM (inactive),18.9 µM (inactive) and 16.4 µM (inactive),15.5 µM and 17.7 µM,31 µM (inactive) and 17.9 µM (inactive),16.5 µM (inactive) and 15.7 µM (inactive),14.7 µM (inactive) and 20.7 µM (inactive),15.4 µM (inactive) and 17.4 µM (inactive),14.1 µM (inactive),16.4 µM (inactive) and 15.9 µM (inactive),16.3 µM (inactive) and 19.6 µM (inactive),18.7 µM (inactive) and 17 µM (inactive),18.5 µM (inactive) and 18.2 µM (inactive),16.3 µM (inactive) and 17.1 µM (inactive)
COC(=O)c1cccc(C)c1C1CN=NC12Cc1c(ccc(C)c1C)C2=O (stereo unspecified),64.1 µM (inactive),51.5 µM (inactive),> 100 µM (inactive),13.6 µM (inactive),> 100 µM (inactive),40.4 µM (inactive),42.2 µM (inactive),33.1 µM (inactive),16.4 µM,19 µM (inactive),> 100 µM (inactive),56.9 µM (inactive),> 100 µM (inactive),58.1 µM (inactive),34.4 µM (inactive),91.2 µM (inactive),35.2 µM (inactive),,33.1 µM (inactive)
COC(=O)[C@@H](COC(=O)/C=C/c1ccc(OC(C)=O)c(OC(C)=O)c1)NC(=O)/C=C/c1ccc(OC(C)=O)c(OC(C)=O)c1,28.1 µM (inactive),20.9 µM (inactive),19 µM (inactive),18 µM (inactive),,21.8 µM (inactive),20.5 µM (inactive),51.5 µM (inactive),19.7 µM,> 100 µM (inactive),51.8 µM (inactive),16.4 µM (inactive),45.8 µM (inactive),80.9 µM (inactive),32.2 µM (inactive),15.3 µM (inactive),29.5 µM (inactive),15.7 µM (inactive),18.3 µM (inactive)
CCOC(=O)c1cc2c([nH]1)c(OC(C)=O)cc1c2ccn1Cc1ccccc1,> 100 µM (inactive),> 100 µM (inactive),> 100 µM (inactive),> 100 µM (inactive),> 100 µM (inactive),> 100 µM (inactive),> 100 µM (inactive),> 100 µM (inactive),> 100 µM,> 100 µM (inactive),> 100 µM (inactive),> 100 µM (inactive),> 100 µM (inactive),> 100 µM (inactive),,> 100 µM (inactive),> 100 µM (inactive),> 100 µM (inactive),> 100 µM (inactive)
O=c1c(-c2c(-c3ccccc3)oc3ccc(Cl)cc3c2=O)c(-c2ccccc2)oc2ccc(Cl)cc12,> 100 µM (inactive),> 44.1 µM (inactive),> 100 µM (inactive),> 100 µM (inactive),,> 100 µM (inactive),> 100 µM (inactive),> 100 µM (inactive),> 100 µM,> 100 µM (inactive),> 100 µM (inactive),> 100 µM (inactive),> 100 µM (inactive),> 100 µM (inactive),> 75.9 µM (inactive),> 100 µM (inactive),> 100 µM (inactive),> 100 µM (inactive),> 100 µM (inactive)
